Experimental data reported in ChEMBL document CHEMBL2074402, “Expression of multidrug resistance-associated protein in NIH/3T3 cells confers multidrug resistance associated with increased drug efflux and altered intracellular drug distribution” (Cancer Res, 1995).
Numbered stars: 1 amine (or outer) side, 2 acyl side, 3 side chain; on linkers, the order of the positions; unused ones are H or OH. Bridge positions count the residues as written; N and C are the ends. Square brackets hold non-standard residues; d marks the D form. Peptide text beside a SMILES is read from it. I, II: the chains in the order shown. Actinocin(9to1) = Cc1c2oc3c(C)ccc(C(=O)[*:1])c3nc-2c(C(=O)[*:2])c(N)c1=O; NMeV = CN[C@H](C(=O)O)C(C)C; Sar = CNCC(=O)O

Target: Multidrug resistance-associated protein 1 (Homo sapiens, UniProt P33527)
Sequence (P33527 whole entry): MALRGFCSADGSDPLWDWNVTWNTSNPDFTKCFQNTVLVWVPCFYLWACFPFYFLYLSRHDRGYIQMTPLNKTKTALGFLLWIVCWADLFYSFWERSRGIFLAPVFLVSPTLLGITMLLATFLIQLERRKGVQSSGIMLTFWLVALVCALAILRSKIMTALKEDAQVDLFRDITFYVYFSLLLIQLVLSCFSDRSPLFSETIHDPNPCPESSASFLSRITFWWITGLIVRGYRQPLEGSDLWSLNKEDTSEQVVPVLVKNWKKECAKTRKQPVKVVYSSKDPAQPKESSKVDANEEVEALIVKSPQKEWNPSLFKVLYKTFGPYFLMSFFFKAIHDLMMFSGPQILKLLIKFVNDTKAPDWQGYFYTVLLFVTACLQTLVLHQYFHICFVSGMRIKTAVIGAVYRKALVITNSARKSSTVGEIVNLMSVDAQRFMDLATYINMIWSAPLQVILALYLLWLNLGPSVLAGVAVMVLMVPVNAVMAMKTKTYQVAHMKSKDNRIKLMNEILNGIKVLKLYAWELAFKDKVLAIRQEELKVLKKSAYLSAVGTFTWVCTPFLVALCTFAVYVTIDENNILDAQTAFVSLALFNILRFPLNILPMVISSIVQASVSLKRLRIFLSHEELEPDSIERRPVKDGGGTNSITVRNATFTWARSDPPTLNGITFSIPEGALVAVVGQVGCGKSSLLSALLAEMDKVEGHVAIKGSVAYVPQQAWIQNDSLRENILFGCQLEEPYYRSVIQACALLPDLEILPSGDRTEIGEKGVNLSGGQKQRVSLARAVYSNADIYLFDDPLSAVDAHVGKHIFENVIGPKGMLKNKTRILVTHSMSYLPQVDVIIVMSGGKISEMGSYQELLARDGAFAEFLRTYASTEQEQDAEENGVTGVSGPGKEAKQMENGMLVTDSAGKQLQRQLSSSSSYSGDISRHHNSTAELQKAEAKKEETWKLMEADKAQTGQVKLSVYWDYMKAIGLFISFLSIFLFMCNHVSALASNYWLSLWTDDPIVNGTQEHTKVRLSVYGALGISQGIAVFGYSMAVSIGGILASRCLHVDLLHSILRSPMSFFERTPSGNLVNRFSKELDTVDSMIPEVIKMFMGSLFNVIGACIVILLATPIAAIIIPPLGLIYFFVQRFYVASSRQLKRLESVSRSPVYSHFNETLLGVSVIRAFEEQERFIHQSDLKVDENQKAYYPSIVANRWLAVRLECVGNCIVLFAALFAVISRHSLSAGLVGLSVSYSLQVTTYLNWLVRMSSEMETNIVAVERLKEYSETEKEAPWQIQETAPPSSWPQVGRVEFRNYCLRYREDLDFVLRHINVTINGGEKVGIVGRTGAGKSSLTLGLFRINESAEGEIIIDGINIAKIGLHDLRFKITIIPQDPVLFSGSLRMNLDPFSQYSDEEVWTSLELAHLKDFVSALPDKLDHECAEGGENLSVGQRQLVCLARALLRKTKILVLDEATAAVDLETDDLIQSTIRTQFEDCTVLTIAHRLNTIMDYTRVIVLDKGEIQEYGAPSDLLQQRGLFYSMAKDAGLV
Test: TP_TRANSPORTER: drug sensitivity in MRP1-expressing NIH/3T3 cells
Format: functional, cell-based
Details: mouse, nih3t3

Cc1c2oc3c(C)ccc(C(=O)N[C@@H]4C(=O)N[C@H](C(C)C)C(=O)N5CCC[C@H]5C(=O)N(C)CC(=O)N(C)[C@@H](C(C)C)C(=O)O[C@@H]4C)c3nc-2c(C(=O)N[C@@H]2C(=O)N[C@H](C(C)C)C(=O)N3CCC[C@H]3C(=O)N(C)CC(=O)N(C)[C@@H](C(C)C)C(=O)O[C@@H]2C)c(N)c1=O [DACTINOMYCIN] (I: T[dV]P[Sar][NMeV] / II: T[dV]P[Sar][NMeV]; ester I:1-I:C, II:1-II:C; linker I:N-II:N via Actinocin(9to1))
Activity: substrate [+]
